Reference: the NIST ThermoML archive (doi:10.1016/j.jct.2011.11.025)
± gives the expanded uncertainty stated by the source.

Assay: activity coefficient (dimensionless); of the first substance listed, at infinite dilution; xn = mol fraction of the nth substance listed
Settings: Liquid, Chromatography, x1 = 0

Structure (SMILES)	activity coefficient (318.15 K)	activity coefficient (328.15 K)	activity coefficient (338.15 K)	activity coefficient (348.15 K)	activity coefficient (358.15 K)	activity coefficient (368.15 K)
C=CCCCC [hex-1-ene] + CCCCCCn1cc[n+](C)c1.N#C[B-](C#N)(C#N)C#N	6.13 ± 0.28	5.88 ± 0.27	5.71 ± 0.26	5.58 ± 0.26	5.44 ± 0.25	5.35 ± 0.24
C1CCCC1 [cyclopentane] + CCCCCCn1cc[n+](C)c1.N#C[B-](C#N)(C#N)C#N	4.65 ± 0.21	4.45 ± 0.2	4.28 ± 0.2	4.14 ± 0.19	4.02 ± 0.18	3.93 ± 0.18
CCCC(=O)OC [methyl butanoate] + CCCCCCn1cc[n+](C)c1.N#C[B-](C#N)(C#N)C#N	0.664 ± 0.03	0.684 ± 0.03	0.701 ± 0.029	0.715 ± 0.029	0.733 ± 0.029	0.751 ± 0.029
CCCCCCCC [octane] + CCCCCCn1cc[n+](C)c1.N#C[B-](C#N)(C#N)C#N	22.8 ± 1.1	21.1 ± 1	19.7 ± 0.9	18.6 ± 0.9	17.4 ± 0.8	16.6 ± 0.8
CC(=O)O [acetic acid] + CCCCCCn1cc[n+](C)c1.N#C[B-](C#N)(C#N)C#N	–	0.285 ± 0.036	0.298 ± 0.036	0.311 ± 0.035	0.323 ± 0.035	0.335 ± 0.035
CCOCC [diethyl ether] + CCCCCCn1cc[n+](C)c1.N#C[B-](C#N)(C#N)C#N	1.59 ± 0.06	1.62 ± 0.07	1.64 ± 0.07	1.68 ± 0.07	1.71 ± 0.07	1.76 ± 0.07
C=CCCCCCC [oct-1-ene] + CCCCCCn1cc[n+](C)c1.N#C[B-](C#N)(C#N)C#N	11.7 ± 0.5	11.1 ± 0.5	10.7 ± 0.5	10.3 ± 0.5	9.91 ± 0.46	9.64 ± 0.44
Cc1ccccc1 [toluene] + CCCCCCn1cc[n+](C)c1.N#C[B-](C#N)(C#N)C#N	0.975 ± 0.025	0.993 ± 0.025	1.02 ± 0.03	1.04 ± 0.03	1.06 ± 0.03	1.08 ± 0.03
Cc1ccc(C)cc1 [1,4-dimethylbenzene] + CCCCCCn1cc[n+](C)c1.N#C[B-](C#N)(C#N)C#N	1.33 ± 0.05	1.36 ± 0.05	1.39 ± 0.05	1.42 ± 0.05	1.44 ± 0.05	1.47 ± 0.06
CCCCCC [hexane] + CCCCCCn1cc[n+](C)c1.N#C[B-](C#N)(C#N)C#N	11.8 ± 0.5	11.2 ± 0.5	10.6 ± 0.5	10.2 ± 0.5	9.79 ± 0.45	9.53 ± 0.44
CCCC(C)=O [pentan-2-one] + CCCCCCn1cc[n+](C)c1.N#C[B-](C#N)(C#N)C#N	0.497 ± 0.033	0.513 ± 0.032	0.529 ± 0.032	0.544 ± 0.032	0.556 ± 0.032	0.572 ± 0.031
C=C(C)c1ccccc1 [(1-methylethenyl)benzene] + CCCCCCn1cc[n+](C)c1.N#C[B-](C#N)(C#N)C#N	–	1.2 ± 0.04	1.26 ± 0.04	1.3 ± 0.04	1.34 ± 0.05	1.38 ± 0.05
CC(C)=O [acetone] + CCCCCCn1cc[n+](C)c1.N#C[B-](C#N)(C#N)C#N	0.335 ± 0.035	0.344 ± 0.035	0.354 ± 0.035	0.363 ± 0.035	0.372 ± 0.034	0.381 ± 0.034
C=CCCCCCCCC [1-decene] + CCCCCCn1cc[n+](C)c1.N#C[B-](C#N)(C#N)C#N	21.5 ± 1	20.5 ± 0.9	19.3 ± 0.9	18.5 ± 0.9	17.6 ± 0.8	16.9 ± 0.8
O [water] + CCCCCCn1cc[n+](C)c1.N#C[B-](C#N)(C#N)C#N	2.05 ± 0.09	1.87 ± 0.08	1.7 ± 0.07	1.55 ± 0.06	1.42 ± 0.05	1.33 ± 0.05
c1ccncc1 [pyridine] + CCCCCCn1cc[n+](C)c1.N#C[B-](C#N)(C#N)C#N	0.38 ± 0.034	0.389 ± 0.034	0.4 ± 0.034	0.408 ± 0.034	0.418 ± 0.034	0.429 ± 0.034
c1ccccc1 [benzene] + CCCCCCn1cc[n+](C)c1.N#C[B-](C#N)(C#N)C#N	0.733 ± 0.029	0.743 ± 0.029	0.758 ± 0.029	0.773 ± 0.028	0.783 ± 0.028	0.8 ± 0.028
CCCOCCC [dipropyl ether] + CCCCCCn1cc[n+](C)c1.N#C[B-](C#N)(C#N)C#N	3.82 ± 0.17	3.77 ± 0.17	3.73 ± 0.17	3.74 ± 0.17	3.72 ± 0.17	3.73 ± 0.17

Structure (SMILES)	activity coefficient (318.15 K)	activity coefficient (328.15 K)	activity coefficient (338.15 K)	activity coefficient (348.15 K)	activity coefficient (358.15 K)	activity coefficient (368.15 K)
C1=CCCCC1 [cyclohexene] + CCCCCCn1cc[n+](C)c1.N#C[B-](C#N)(C#N)C#N	3.48 ± 0.16	3.38 ± 0.15	3.27 ± 0.15	3.25 ± 0.15	3.17 ± 0.14	3.14 ± 0.14
CCC(C)CC [3-methylpentane] + CCCCCCn1cc[n+](C)c1.N#C[B-](C#N)(C#N)C#N	10.5 ± 0.5	9.96 ± 0.46	9.5 ± 0.44	9.15 ± 0.42	8.81 ± 0.4	8.6 ± 0.39
C#CCCCC [1-hexyne] + CCCCCCn1cc[n+](C)c1.N#C[B-](C#N)(C#N)C#N	2.17 ± 0.1	2.19 ± 0.1	2.2 ± 0.1	2.24 ± 0.1	2.26 ± 0.1	2.3 ± 0.1
Cc1cccc(C)c1 [1,3-dimethylbenzene] + CCCCCCn1cc[n+](C)c1.N#C[B-](C#N)(C#N)C#N	1.36 ± 0.05	1.39 ± 0.05	1.42 ± 0.05	1.44 ± 0.05	1.47 ± 0.06	1.5 ± 0.06
c1ccsc1 [thiophene] + CCCCCCn1cc[n+](C)c1.N#C[B-](C#N)(C#N)C#N	0.636 ± 0.03	0.647 ± 0.03	0.657 ± 0.03	0.666 ± 0.03	0.678 ± 0.03	0.689 ± 0.03
C#CCCCCC [1-heptyne] + CCCCCCn1cc[n+](C)c1.N#C[B-](C#N)(C#N)C#N	2.92 ± 0.13	2.93 ± 0.13	2.94 ± 0.13	2.98 ± 0.14	2.99 ± 0.14	3.02 ± 0.14
C#CCCCCCC [1-octyne] + CCCCCCn1cc[n+](C)c1.N#C[B-](C#N)(C#N)C#N	3.99 ± 0.18	3.97 ± 0.18	3.96 ± 0.18	3.98 ± 0.18	3.97 ± 0.18	3.99 ± 0.18
CCCCCCCCCC [decane] + CCCCCCn1cc[n+](C)c1.N#C[B-](C#N)(C#N)C#N	43.6 ± 2	40 ± 1.9	36.4 ± 1.7	33.8 ± 1.6	31.3 ± 1.5	29.3 ± 1.4
CCOC(C)=O [ethyl acetate] + CCCCCCn1cc[n+](C)c1.N#C[B-](C#N)(C#N)C#N	0.664 ± 0.03	0.684 ± 0.03	0.701 ± 0.029	0.715 ± 0.029	0.733 ± 0.029	0.751 ± 0.029
C1CCCCC1 [cyclohexane] + CCCCCCn1cc[n+](C)c1.N#C[B-](C#N)(C#N)C#N	6.52 ± 0.3	6.15 ± 0.28	5.85 ± 0.27	5.58 ± 0.26	5.38 ± 0.25	5.21 ± 0.24
C1CCOC1 [tetrahydrofuran] + CCCCCCn1cc[n+](C)c1.N#C[B-](C#N)(C#N)C#N	0.453 ± 0.033	0.47 ± 0.033	0.485 ± 0.033	0.501 ± 0.032	0.513 ± 0.032	0.527 ± 0.032
Cc1ccccc1C [1,2-dimethylbenzene] + CCCCCCn1cc[n+](C)c1.N#C[B-](C#N)(C#N)C#N	1.19 ± 0.04	1.22 ± 0.04	1.24 ± 0.04	1.26 ± 0.04	1.28 ± 0.04	1.31 ± 0.05
CC(C)(C)O [2-methylpropan-2-ol] + CCCCCCn1cc[n+](C)c1.N#C[B-](C#N)(C#N)C#N	1.2 ± 0.04	1.11 ± 0.03	1.04 ± 0.03	0.988 ± 0.025	0.951 ± 0.026	0.914 ± 0.026
CC1CCCCC1 [methylcyclohexane] + CCCCCCn1cc[n+](C)c1.N#C[B-](C#N)(C#N)C#N	8.87 ± 0.41	8.35 ± 0.38	7.87 ± 0.36	7.58 ± 0.35	7.24 ± 0.33	7 ± 0.32
CC#N [acetonitrile] + CCCCCCn1cc[n+](C)c1.N#C[B-](C#N)(C#N)C#N	0.387 ± 0.034	0.391 ± 0.034	0.394 ± 0.034	0.396 ± 0.034	0.398 ± 0.034	0.4 ± 0.034
CCC(=O)OC [methyl propanoate] + CCCCCCn1cc[n+](C)c1.N#C[B-](C#N)(C#N)C#N	0.609 ± 0.031	0.628 ± 0.031	0.648 ± 0.03	0.668 ± 0.03	0.685 ± 0.03	0.705 ± 0.029
CC(C)CO [2-methyl-1-propanol] + CCCCCCn1cc[n+](C)c1.N#C[B-](C#N)(C#N)C#N	1.44 ± 0.05	1.31 ± 0.05	1.2 ± 0.1	1.11 ± 0.03	1.04 ± 0.03	0.977 ± 0.025
